Patent US20260248767A1, “METHODS FOR INDUCING FERROPTOSIS IN CANCER” (Board of Regents, The University of Texas System, priority 2023, published 2026)
“Also recorded” adds a separate entry of the source.

Legend:
HT-1080 cells [1] = test: Relative mitochondrial lipid peroxidation level; assay type: cell-based, human; conditions: combined with RSL3, compared to RSL3 alone
MTHFD2 = test: Protein level after sulfite treatment (Western blotting), MTHFD2; assay type: cell-based; conditions: following treatment with sulfite
Experimental: To test if sulfite changed mitochondrial protein levels, SHMT2 and MTHFD2 protein levels were measured following treatment with sulfite. No changes in protein levels were observed (FIG. 9).
Briefly, cells were lysed in NP-40 lysis buffer (50 mM Tris [pH 7.4], 250 mM NaCl, 5 mM EDTA, 50 mM NaF, 1 mM Na3VO4, 1% Nonidet P40) containing complete mini protease inhibitors (Roche). The protein concentration of lysates was quantified using BCA Protein Assay Kit from Life Technologies (#23227). 20 μg of total protein was loaded into SDS-PAGE gel and transferred to a PVDF membrane (Bio-Rad) using standard techniques. The primary antibodies and concentrations used for Western blotting were Vinculin (1:1000, Sigma-Aldrich, #V4505), SUOX (1:1000, Abcam, #ab129094), SHMT2 (1:1000, Sigma-Aldrich, #HPA-020549), IDH1 (1:1000, Proteintech, #12332-1-AP), ME1 (1:1000,), MTHFD2 (1:1000, Abcam, #ab56772), Flag (1:1000, Sigma, #F1804), GPX4 (1:1,000, R&D, #MAB5457), COQ2 (1:1,000, Santa Cruz, sc-517107) and FSP1 (1:1000, Proteintech, #20886-1-AP).

HT-1080 cells [2] = test: Cell death assay (PI flow cytometry), HT-1080 cells incl. knockout lines
Experimental: Initially, the effect of sulfite on ferroptosis was studied. […] Each group was treated with vehicle alone or with sulfite.
The knockout cells were identified by immunoblotting.
Briefly, cells were seeded in 12-well plates and incubated overnight. After treatment, cells were trypsinized and collected. After washing with cold phosphate-buffered saline (PBS), the cells were stained with 2 μg/mL propidium iodide (PI) in cold PBS. […] All experiments were performed in triplicates.

SHMT2 protein = target: T1, SHMT2 protein (Homo sapiens, UniProt P34897); test: SHMT2 tetramer formation (immunoblot); assay type: cell-based; conditions: sulfite treatment
T1 construct: endogenous in cells
T1 sequence (P34897 30-504): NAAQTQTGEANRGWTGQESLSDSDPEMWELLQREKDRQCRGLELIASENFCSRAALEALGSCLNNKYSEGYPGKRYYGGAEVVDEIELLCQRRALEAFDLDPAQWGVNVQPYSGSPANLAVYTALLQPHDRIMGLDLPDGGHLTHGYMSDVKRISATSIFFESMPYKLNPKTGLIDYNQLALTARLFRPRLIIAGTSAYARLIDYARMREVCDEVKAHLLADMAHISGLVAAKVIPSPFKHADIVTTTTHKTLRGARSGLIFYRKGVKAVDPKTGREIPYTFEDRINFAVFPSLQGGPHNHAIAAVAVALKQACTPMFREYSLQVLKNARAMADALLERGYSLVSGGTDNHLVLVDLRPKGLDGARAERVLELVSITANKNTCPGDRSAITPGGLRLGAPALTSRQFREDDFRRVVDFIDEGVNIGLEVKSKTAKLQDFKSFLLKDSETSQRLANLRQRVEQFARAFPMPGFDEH
Source text: Exogenously expressed SHMT2 was also able to form tetramer (FIG. 8B).
To generate cell lines with stable overexpression of C-terminal-tagged SHMT2, the SHMT2 cDNA was cloned into the lentivirus expression vector pLEX_307 SFB. HEK293T cells were transfected with either pLEX_307 SFB-empty vector, or -SHMT2, together with the lentiviral packaging plasmids psPAX2 and pMD2.G using Lipofectamine 2000 reagent (Life Technologies, #11668030) according to the manufacturer's instructions and as described previously (Lei, G. et al. Oncogene 40, 3533-3547, doi: 10.1038/s41388-021-01790-w (2021); Lei, G. et al. Cell Res 30, 146-162, doi: 10.1038/s41422-019-0263-3 (2020)). Forty-eight hours later, lentivirus was collected and filtered, and the target cell lines were infected with lentivirus. Twenty-four hours after infection, antibiotic was added to the medium to obtain stable cell lines. Protein expression levels were determined by immunoblotting. To generate knockdown cell lines, lentiviral transduction with IDH1/ME1/MTHFD21 shRNA vectors was conducted as described previously (Lin, A. et al. Cancer Res 74, 1682-1693, doi: 10.1158/0008-5472.CAN-13-1729 (2014)). Forty-eight hours later, upon puromycin antibiotic selection, protein expression levels were determined by immunoblotting.
Briefly, cells were lysed in NP-40 lysis buffer (50 mM Tris [pH 7.4], 250 mM NaCl, 5 mM EDTA, 50 mM NaF, 1 mM Na3VO4, 1% Nonidet P40) containing complete mini protease inhibitors (Roche). The protein concentration of lysates was quantified using BCA Protein Assay Kit from Life Technologies (#23227). 20 μg of total protein was loaded into SDS-PAGE gel and transferred to a PVDF membrane (Bio-Rad) using standard techniques. […]

HT-1080 cells [3] = test: Cell viability assay (CCK-8); assay type: cell-based, human
Experimental: Cell viability was measured using a Cell Counting Kit-8 (CCK-8, Dojindo) as previously described (Koppula, P., et al. J Biol Chem 292, 14240-14249, doi: 10.1074/jbc.M117.798405 (2017); Liu, X. et al. Nat Cell Biol 18, 431-442, doi: 10.1038/ncb3328 (2016)). In brief, cells were seeded onto 96-well plates at a density of 1×10^4 per well. The next day, cells were treated with indicated compound for 16-20 h. Subsequently, cells were changed to new 100 μl medium containing 10 μl CCK-8 reagent for 1 h at 37° C., 5% CO2 in incubator. The absorbance at 450 nm was determined using a FLUOstar Omega microplate reader (BMG Labtech).

HT-1080 cells [4] = test: Lipid peroxidation measurement (C11-BODIPY 581/591, flow cytometry); assay type: cell-based, human; conditions: combined with RSL3, compared to RSL3 alone
Experimental: Cells were seeded on 12-well plates and incubated overnight. After treating with compounds for indicated time, cells were incubated in media containing 5 μM C11-BODIPY 581/591 (Invitrogen) for 30 min at 37° C. Then cells were trypsinized and collected. […] All experiments were performed in triplicates.

## O=S([O-])[O-].[Na+].[Na+] [sulfite, sodium sulfite]
HT-1080 cells [1]
  relative mitochondrial lipid peroxidation level in combination with RSL3: significantly increased
MTHFD2
  MTHFD2 protein level: No changes
HT-1080 cells [2]; 0.5 mM, cancer cells, presence or absence of RSL3
  cell death as observed visually: resulted in cell death
HT-1080 cells [2]; GPX4, FSP1, COQ2 and DHODH knock out cell lines
  sensitization of knock out cells to ferroptosis: can still sensitize
HT-1080 cells [2]; RSL3+Sulfite vs RSL3 alone, SHMT2 knock out cells (FIG. 5J)
  cell death in combination with RSL3 in SHMT2 knock out cells: slight increase in cell death
HT-1080 cells [2]; SUOX knockout HT-1080 cells, vs RSL3 alone
  cell death in combination with RSL3 in SUOX knockout cells: significantly more cell death
HT-1080 cells [2]; co-treatment with 4CBA, iFSP1 or brequinar (BQR)
  sensitization to RSL3 induced ferroptosis under co-treatment with ferroptosis regulator inhibitors: can still sensitize
HT-1080 cells [2]; combined with RSL3, compared to RSL3 alone
  cell death in combination with RSL3: significant increased cell death
HT-1080 cells [2]; combined with ferroptosis inducer FIN56
  cell death in combination with FIN56: similarly enhanced
HT-1080 cells [2]; combined with ferroptosis inducer JKE-1674 (JKE)
  cell death in combination with JKE-1674: similarly enhanced
HT-1080 cells [2]; combined with ferroptosis inducer ML-162
  cell death in combination with ML-162: similarly enhanced
HT-1080 cells [2]; combined with ferroptosis inducer ML-210
  cell death in combination with ML-210: similarly enhanced
SHMT2 protein
  tetramer formation of endogenous SHMT2 protein: disrupt the tetramer formation; also recorded: inhibits the tetramer formation
  tetramer formation of exogenous expressed SHMT2: inhibit the tetramer formation
SHMT2 protein; listed as Sulfite
  tetramer formation of exogenous expressed SHMT2: inhibited the tetramer formation
HT-1080 cells [3]; combined with RSL3, range of concentrations
  cell viability when combined with different concentrations of RSL3: reduces cell viability
HT-1080 cells [3]; sulfite plus multiple concentrations of RSL3, SHMT2 knock out vs wild type
  sensitization effect on cell viability in SHMT2 knock out cells: much weaker than in wild type cells
HT-1080 cells [4]
  relative lipid peroxidation level in combination with RSL3: significantly increased
